Measurements reported in US11021493B2, “1,4-thiazine dioxide and 1,2,4-thiadiazine dioxide derivatives as beta-secretase inhibitors and methods of use” (AMGEN INC., priority 2016, dated 2021).

Experiments:
BACE1 [1] = biological target: T1, BACE1 (Homo sapiens (Human), UniProt P56817); test: In vitro BACE1 cell-based assay (Aβ40 in conditioned medium of cells stably expressing APP, HTRF); conditions: Aβ40 in conditioned media after 24 h incubation
Target sequence in this assay (P56817 46-501, species assumed): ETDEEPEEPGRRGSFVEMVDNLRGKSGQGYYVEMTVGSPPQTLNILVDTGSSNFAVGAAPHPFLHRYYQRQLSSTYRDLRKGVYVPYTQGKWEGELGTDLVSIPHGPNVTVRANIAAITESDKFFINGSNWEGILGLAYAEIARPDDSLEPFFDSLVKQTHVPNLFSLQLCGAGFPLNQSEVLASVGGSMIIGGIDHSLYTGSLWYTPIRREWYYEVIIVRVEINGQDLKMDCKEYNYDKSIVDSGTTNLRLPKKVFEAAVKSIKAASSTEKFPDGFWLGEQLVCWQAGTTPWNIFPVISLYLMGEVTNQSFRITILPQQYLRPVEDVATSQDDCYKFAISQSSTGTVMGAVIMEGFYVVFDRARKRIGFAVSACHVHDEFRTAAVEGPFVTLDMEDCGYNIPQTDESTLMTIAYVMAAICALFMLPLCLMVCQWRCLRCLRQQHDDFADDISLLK

Cathepsin D (CatD) = Cathepsin D (CatD) (Homo sapiens (Human), UniProt P07339); test: In vitro enzymatic Cathepsin D (CatD) FRET assay; type: biochemical; conditions: read-out: Cat D Enzyme IC50
BACE1 [2] = biological target: T1, BACE1; test: In vitro enzymatic BACE1 FRET assay; type: biochemical; conditions: read-out: BACE1 Enzyme IC50
Target sequence in this assay (P56817 46-501): as the sequence (P56817 46-501, species assumed) above

human recombinant BACE2 = human recombinant BACE2 (Homo sapiens (Human), UniProt Q9Y5Z0); test: In vitro enzymatic BACE2 FRET assay; type: biochemical; conditions: read-out: BACE2 Enzyme IC50
Sequence of human recombinant BACE2 (Q9Y5Z0 63-518): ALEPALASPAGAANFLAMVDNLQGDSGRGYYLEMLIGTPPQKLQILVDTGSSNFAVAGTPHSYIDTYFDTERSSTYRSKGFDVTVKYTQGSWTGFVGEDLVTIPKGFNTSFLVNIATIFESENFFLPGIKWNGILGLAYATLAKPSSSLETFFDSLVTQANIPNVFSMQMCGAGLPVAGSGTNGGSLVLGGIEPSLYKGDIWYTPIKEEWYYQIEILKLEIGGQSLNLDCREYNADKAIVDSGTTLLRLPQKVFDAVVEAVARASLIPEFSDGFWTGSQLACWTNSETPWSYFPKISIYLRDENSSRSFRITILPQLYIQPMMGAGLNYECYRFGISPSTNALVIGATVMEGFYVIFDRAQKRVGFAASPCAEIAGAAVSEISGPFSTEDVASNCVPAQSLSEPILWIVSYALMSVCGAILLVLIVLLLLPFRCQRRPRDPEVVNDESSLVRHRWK

Sequence of Cathepsin D (CatD) (P07339 65-412, species assumed): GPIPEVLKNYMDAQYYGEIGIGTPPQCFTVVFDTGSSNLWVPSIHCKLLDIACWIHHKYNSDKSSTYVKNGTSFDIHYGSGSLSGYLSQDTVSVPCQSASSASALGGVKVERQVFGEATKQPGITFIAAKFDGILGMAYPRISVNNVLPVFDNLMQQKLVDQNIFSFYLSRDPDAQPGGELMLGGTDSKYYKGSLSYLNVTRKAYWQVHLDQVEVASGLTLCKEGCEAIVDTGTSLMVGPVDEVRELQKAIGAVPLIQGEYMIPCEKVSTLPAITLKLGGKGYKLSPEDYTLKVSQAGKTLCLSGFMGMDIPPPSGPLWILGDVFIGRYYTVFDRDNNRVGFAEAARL

Compound	IC50 (BACE1 [1])	IC50 (Cathepsin D (CatD))	IC50 (BACE1 [2])	IC50 (human recombinant BACE2)
C[C@@]1(c2cc(/C=C(\F)c3ccc(Cl)cn3)ccc2F)CS(=O)(=O)C2(CCC2)C(N)=N1 [Example 100, (R,Z)-9-amino-7-(5-(2-(5-chloropyridin-2-yl)-2-fluorovinyl)-2-fluorophenyl)-7-methyl-5-thia-8-azaspiro[3.5]non-8-ene 5,5-dioxide]	472 nM	91000 nM	10 nM	7 nM
CN1C(N)=N[C@](C)(c2cc(/C=C(\F)c3cc(F)c(C#N)cn3)ccc2F)CS1(=O)=O [Example 226, 6-((Z)-2-(3-((5R)-3-amino-2,5-dimethyl-1,1-dioxido-5,6-dihydro-2H-1,2,4-thiadiazin-5-yl)-4-fluorophenyl)-1-fluoroethenyl)-4-fluoro-3-pyridinecarbonitrile]	341 nM	47000 nM	7 nM	14 nM
CN1C(N)=N[C@](C)(c2cc(/C=C(\F)c3cnc(OCC4COC4)cn3)ccc2F)CS1(=O)=O [Example 179, (R,Z)-3-amino-5-(2-fluoro-5-(2-fluoro-2-(5-(oxetan-3-ylmethoxy)pyrazin-2-yl)vinyl)phenyl)-2,5-dimethyl-5,6-dihydro-2H-1,2,4-thiadiazine 1,1-dioxide]	120 nM	43000 nM	176 nM	217 nM
C[C@]1(c2cc(/C=C(\F)c3cnc(OCC4COC4)cn3)ccc2F)N=C(N)[C@@]2(CF)CC[C@@H]1S2(=O)=O [Example 126, (1R,4R,5S)-2-amino-4-(2-fluoro-5-((Z)-2-fluoro-2-(5-(oxetan-3-ylmethoxy)pyrazin-2-yl)vinyl)phenyl)-1-(fluoromethyl)-4-methyl-8-thia-3-azabicyclo[3.2.1]oct-2-ene 8,8-dioxide]	457 nM	100000 nM	138 nM	141 nM
CN1C(N)=N[C@](C)(c2cc(/C=C(\F)c3cnc(OCC(F)(F)F)cn3)ccc2F)CS1(=O)=O [Example 117, (R,Z)-3-amino-5-(2-fluoro-5-(2-fluoro-2-(5-(2,2,2-trifluoroethoxy)pyrazin-2-yl)vinyl)phenyl)-2,5-dimethyl-5,6-dihydro-2H-1,2,4-thiadiazine 1,1-dioxide]	148 nM	29100 nM	23 nM	186 nM
CN1C(N)=N[C@](C)(c2cc(/C=C(\F)c3cnc(Cl)cn3)ccc2F)C2(CC2)S1(=O)=O [Example 139, (8R)-8-(5-((Z)-2-(5-chloro-2-pyrazinyl)-2-fluoroethenyl)-2-fluorophenyl)-5,8-dimethyl-4-thia-5,7-diazaspiro[2.5]oct-6-en-6-amine 4,4-dioxide]	198 nM	428000 nM	49 nM	70 nM
CC1(C)C(N)=N[C@](C)(c2cc(/C=C(\F)c3ccc(F)cn3)ccc2F)CS1(=O)=O [Example 262, (R,Z)-5-amino-3-(2-fluoro-5-(2-fluoro-2-(5-fluoropyridin-2-yl)vinyl)phenyl)-3,6,6-trimethyl-3,6-dihydro-2H-1,4-thiazine 1,1-dioxide]	180 nM	108000 nM	47 nM	11 nM
COc1cnc(/C(F)=C/c2ccc(F)c([C@]3(C)CS(=O)(=O)C(C)(C)C(N)=N3)c2)cn1 [Example 263, (R,Z)-5-amino-3-(2-fluoro-5-(2-fluoro-2-(5-methoxypyrazin-2-yl)vinyl)phenyl)-3,6,6-trimethyl-3,6-dihydro-2H-1,4-thiazine 1,1-dioxide]	133 nM	237000 nM	189 nM	190 nM
CC1(C)C(N)=N[C@](C)(c2cc(/C=C/c3ccc(Cl)cc3)ccc2F)CS1(=O)=O [Example 279, (R,E)-5-amino-3-(5-(4-chlorostyryl)-2-fluorophenyl)-3,6,6-trimethyl-3,6-dihydro-2H-1,4-thiazine 1,1-dioxide]	442 nM	39300 nM	56 nM	56 nM
CC#C[C@@H](C)Oc1cnc(/C(F)=C/c2ccc(F)c([C@]3(C)CS(=O)(=O)C(C)(C)C(N)=N3)c2)cn1 (single isomer, unassigned) [Example 207]	2530 nM	57500 nM	507 nM	519 nM
C#C[C@@H](CC)Oc1cnc(/C(F)=C/c2ccc(F)c([C@]3(C)CS(=O)(=O)C(C)(C)C(N)=N3)c2)cn1 (single isomer, unassigned) [Example 177]	600 nM	61400 nM	208 nM	101 nM

These reach a lower IC50 (BACE1 [1]). Values come first.

IC50 (BACE1 [1])	IC50 (Cathepsin D (CatD))	IC50 (BACE1 [2])	IC50 (human recombinant BACE2)	Compound
99 nM	107000 nM	392 nM	554 nM	CN1C(N)=N[C@](C)(c2cc(/C=C(\F)c3ncc4c(n3)OCCO4)ccc2F)CS1(=O)=O [Example 234, (R,Z)-3-Amino-5-(5-(2-(6,7-dihydro-[1,4]dioxino[2,3-d]pyrimidin-2-yl)-2-fluorovinyl)-2-fluorophenyl)-2,5-dimethyl-5,6-dihydro-2H-1,2,4-thiadiazine 1,1-dioxide]
88 nM	25300 nM	18 nM	217 nM	CN1C(N)=N[C@](C)(c2cc(/C=C(\F)c3cnc(OCC(F)(F)C(F)F)cn3)ccc2F)CS1(=O)=O [Example 148, (R,Z)-3-amino-5-(2-fluoro-5-(2-fluoro-2-(5-(2,2,3,3-tetrafluoropropoxy)pyrazin-2-yl)vinyl)phenyl)-2,5-dimethyl-5,6-dihydro-2H-1,2,4-thiadiazine 1,1-dioxide]
75 nM	117000 nM	10 nM	38 nM	CC1(C)C(N)=N[C@](C)(c2cc(/C=C(\F)c3ncc(C(F)(F)F)cc3Cl)ccc2F)CS1(=O)=O [Example 264, (R,Z)-5-amino-3-(5-(2-(3-chloro-5-(trifluoromethyl)pyridin-2-yl)-2-fluorovinyl)-2-fluorophenyl)-3,6,6-trimethyl-3,6-dihydro-2H-1,4-thiazine 1,1-dioxide]
56 nM	148000 nM	111 nM	409 nM	Cc1nnc(COc2cnc(/C(F)=C/c3ccc(F)c([C@]4(C)CS(=O)(=O)C(C)(C)C(N)=N4)c3)cn2)o1 [Example 176, (R,Z)-5-amino-3-(2-fluoro-5-(2-fluoro-2-(5-((5-methyl-1,3,4-oxadiazol-2-yl)methoxy)pyrazin-2-yl)vinyl)phenyl)-3,6,6-trimethyl-3,6-dihydro-2H-1,4-thiazine 1,1-dioxide]
35 nM	136000 nM	7 nM	12 nM	CC1(C)C(N)=N[C@](C)(c2cc(/C=C(\F)c3ncc(C#N)cc3Cl)ccc2F)CS1(=O)=O [Example 268, (R,Z)-6-(2-(3-(5-amino-3,6,6-trimethyl-1,1-dioxido-3,6-dihydro-2H-1,4-thiazin-3-yl)-4-fluorophenyl)-1-fluorovinyl)-5-chloronicotinonitrile]
33 nM	54400 nM	6 nM	40 nM	CN1C(N)=N[C@](C)(c2cc(/C=C(\F)c3ccc(OC(F)(F)F)cn3)ccc2F)CS1(=O)=O [Example 258, (R,Z)-3-amino-5-(2-fluoro-5-(2-fluoro-2-(5-(trifluoromethoxy)pyridin-2-yl)vinyl)phenyl)-2,5-dimethyl-5,6-dihydro-2H-1,2,4-thiadiazine 1,1-dioxide]
24 nM	95000 nM	3 nM	2 nM	CN1C(N)=N[C@](C)(c2cc(/C=C(\F)c3ccc(Cl)cn3)ccc2F)CS1(=O)=O [Example 104, (R,Z)-3-amino-5-(5-(2-(5-chloropyridin-2-yl)-2-fluorovinyl)-2-fluorophenyl)-2,5-dimethyl-5,6-dihydro-2H-1,2,4-thiadiazine 1,1-dioxide]
14 nM	55900 nM	1 nM	9 nM	Cc1cc(C#N)cnc1/C(F)=C/c1cc(F)c(F)c([C@]2(C)CS(=O)(=O)N(C)C(N)=N2)c1 [Example 275, (R,Z)-6-(2-(3-(3-amino-2,5-dimethyl-1,1-dioxido-5,6-dihydro-2H-1,2,4-thiadiazin-5-yl)-4,5-difluorophenyl)-1-fluorovinyl)-5-methylnicotinonitrile]
6 nM	17000 nM	5 nM	142 nM	C#C[C@H](C)Oc1cnc(/C(F)=C/c2ccc(F)c([C@]3(C)CS(=O)(=O)N(C)C(N)=N3)c2)cn1 [Example 171, (R)-3-amino-5-(5-((Z)-2-(5-((S)-but-3-yn-2-yloxy)pyrazin-2-yl)-2-fluorovinyl)-2-fluorophenyl)-2,5-dimethyl-5,6-dihydro-2H-1,2,4-thiadiazine 1,1-dioxide]
6 nM	86300 nM	7 nM	5 nM	CN1C(N)=N[C@](C)(c2cc(/C=C(\F)c3cnc(Cl)cn3)ccc2F)CS1(=O)=O [Example 111, (R,Z)-3-amino-5-(5-(2-(5-chloropyrazin-2-yl)-2-fluorovinyl)-2-fluorophenyl)-2,5-dimethyl-5,6-dihydro-2H-1,2,4-thiadiazine 1,1-dioxide]
4 nM	137000 nM	5 nM	21 nM	Cc1cc(C#N)cnc1/C(F)=C/c1ccc(F)c([C@]2(C)CS(=O)(=O)N(C)C(N)=N2)c1 [Example 245, 6-((Z)-2-(3-((5R)-3-amino-2,5-dimethyl-1,1-dioxido-5,6-dihydro-2H-1,2,4-thiadiazin-5-yl)-4-fluorophenyl)-1-fluoroethenyl)-5-methyl-3-pyridinecarbonitrile]
3 nM	81800 nM	3 nM	25 nM	CN1C(N)=N[C@](C)(c2cc(/C=C(\F)c3ccc(C#N)cn3)cc(F)c2F)CS1(=O)=O [Example 107, (R,Z)-6-(2-(3-(3-amino-2,5-dimethyl-1,1-dioxido-5,6-dihydro-2H-1,2,4-thiadiazin-5-yl)-4,5-difluorophenyl)-1-fluorovinyl)nicotinonitrile]
